Results reported in patent publication US11078197B2, “5-membered and bicyclic heterocyclic amides as inhibitors of rock” (BRISTOL-MYERS SQUIBB COMPANY, priority 2017, dated 2021).

Target: ROCK2 (Homo sapiens (Human), UniProt O75116)
Test: ROCK2 assay (peptide phosphorylation, LABCHIP 3000 Reader)
Type: biochemical
Conditions: 5 μM ATP, 1.5 μM peptide substrate, dose-response
Description: After incubation, the reaction was terminated by the addition of EDTA and the phosphorylated and non-phosphorylated peptides separated using a LABCHIP®3000 Reader (Caliper Life Sciences). […] Compounds were tested in dose-response format, and the inhibition of kinase activity was calculated at each concentration of compound. […] Representative Examples were tested in the ROCK2 assay described above and found having ROCK2 inhibitory activity.

ROCK2, sequence (O75116 whole entry, species assumed): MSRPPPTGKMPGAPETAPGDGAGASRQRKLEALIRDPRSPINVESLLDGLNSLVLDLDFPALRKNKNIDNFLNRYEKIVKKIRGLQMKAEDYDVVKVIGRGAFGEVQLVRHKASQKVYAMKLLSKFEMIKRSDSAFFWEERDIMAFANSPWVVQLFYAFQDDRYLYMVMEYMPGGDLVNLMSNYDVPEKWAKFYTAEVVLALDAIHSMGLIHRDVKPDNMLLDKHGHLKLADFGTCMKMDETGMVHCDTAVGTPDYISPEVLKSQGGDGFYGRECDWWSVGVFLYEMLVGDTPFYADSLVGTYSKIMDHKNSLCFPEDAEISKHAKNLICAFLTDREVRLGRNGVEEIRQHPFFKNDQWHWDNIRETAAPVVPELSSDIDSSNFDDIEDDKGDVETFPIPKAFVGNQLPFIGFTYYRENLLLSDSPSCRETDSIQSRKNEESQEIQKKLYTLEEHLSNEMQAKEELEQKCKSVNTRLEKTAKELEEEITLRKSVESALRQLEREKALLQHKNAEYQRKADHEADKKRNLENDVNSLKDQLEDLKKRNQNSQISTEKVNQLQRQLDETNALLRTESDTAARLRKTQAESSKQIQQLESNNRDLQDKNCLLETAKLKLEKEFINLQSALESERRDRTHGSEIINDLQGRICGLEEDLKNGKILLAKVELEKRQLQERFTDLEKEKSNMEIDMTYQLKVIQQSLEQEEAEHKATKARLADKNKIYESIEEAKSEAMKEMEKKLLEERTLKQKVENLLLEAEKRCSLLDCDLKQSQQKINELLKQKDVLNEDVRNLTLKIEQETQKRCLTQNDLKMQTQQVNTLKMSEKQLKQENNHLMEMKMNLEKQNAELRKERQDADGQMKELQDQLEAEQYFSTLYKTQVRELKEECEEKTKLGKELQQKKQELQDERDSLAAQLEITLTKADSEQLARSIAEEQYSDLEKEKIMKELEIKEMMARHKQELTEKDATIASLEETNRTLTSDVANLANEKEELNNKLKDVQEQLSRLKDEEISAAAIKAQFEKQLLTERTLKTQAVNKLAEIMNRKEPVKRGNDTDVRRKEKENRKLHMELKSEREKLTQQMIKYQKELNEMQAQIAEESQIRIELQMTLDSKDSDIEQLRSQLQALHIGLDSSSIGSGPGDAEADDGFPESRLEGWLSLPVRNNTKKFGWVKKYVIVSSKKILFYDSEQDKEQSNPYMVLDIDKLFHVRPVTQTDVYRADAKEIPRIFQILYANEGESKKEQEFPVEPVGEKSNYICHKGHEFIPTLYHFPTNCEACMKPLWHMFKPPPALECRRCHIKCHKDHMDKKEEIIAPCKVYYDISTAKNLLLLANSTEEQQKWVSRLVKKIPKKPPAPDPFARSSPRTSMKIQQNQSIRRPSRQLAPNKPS

Structure (SMILES) | IC50 [nM]
CC(C)(O)COc1ccc2c(C(=O)NC3CC4(C3)CC(Oc3nn(CC5CCNCC5)cc3C(N)=O)C4)cnn2c1C1CC1 [Example 20, 3-({(aR)-6-[7-cyclopropyl-6-(2-hydroxy-2-methylpropoxy)pyrazolo [1,5-a]pyridine-3-amido]spiro[3.3]heptan-2-yl}oxy)-1-[(piperidin-4-yl)methyl]-1H-pyrazole-4-carboxamide] | 6.8
Cc1nc(O[C@H]2C[C@@]3(C[C@H](NC(=O)c4cnn5cc(OCC(C)(C)O)ccc45)C3)C2)c(C(N)=O)s1 (stereo partly drawn) [Example 21, 4-({(aR)-6-[6-(2-hydroxy-2-methylpropoxy)pyrazolo [1,5-a]pyridine-3-amido]spiro[3.3]heptan-2-yl}oxy)-2-methyl-1,3-thiazole-5-carboxamide] | 18.9
Cc1nc(O[C@H]2C[C@@]3(C[C@H](NC(=O)c4cnn5c(C6CC6)c(OCC(C)(C)O)ccc45)C3)C2)c(C(N)=O)s1 (stereo partly drawn) [Example 22, 4-({(aR)-6-[7-cyclopropyl-6-(2-hydroxy-2-methylpropoxy)pyrazolo [1,5-a]pyridine-3-amido]spiro[3.3]heptan-2-yl}oxy)-2-methyl-1,3-thiazole-5-carboxamide] | 7
COCCn1cc(C(N)=O)c(O[C@H]2C[C@@]3(C[C@H](NC(=O)c4cnn5c(C6CC6)c(OCC(C)(C)O)ccc45)C3)C2)n1 (stereo partly drawn) [Example 23, 3-({(aR)-6-[7-cyclopropyl-6-(2-hydroxy-2-methylpropoxy)pyrazolo [1,5-a]pyridine-3-amido]spiro[3.3]heptan-2-yl}oxy)-1-(2-methoxyethyl)-1H-pyrazole-4-carboxamide] | 77.7
COCCn1ncc(C(N)=O)c1O[C@H]1C[C@@]2(C[C@H](NC(=O)c3cnn4c(C5CC5)c(OCC(C)(C)O)ccc34)C2)C1 (stereo partly drawn) [Example 24, 5-({(aR)-6-[7-cyclopropyl-6-(2-hydroxy-2-methylpropoxy)pyrazolo [1,5-a]pyridine-3-amido]spiro[3.3]heptan-2-yl}oxy)-1-(2-methoxyethyl)-1H-pyrazole-4-carboxamide] | 1480
Cc1nc(O[C@H]2C[C@@]3(C[C@H](NC(=O)c4nn(C(F)F)c5cc(OCC(C)(C)O)ccc45)C3)C2)c(C(N)=O)s1 (stereo partly drawn) [Example 25, N-{(aR)-6-[(5-carbamoyl-2-methyl-1,3-thiazol-4-yl)oxy]spiro[3.3]heptan-2-yl}-1-(difluoromethyl)-6-(2-hydroxy-2-methylpropoxy)-1H-indazole-3-carboxamide] | 6.4
CC(C)(O)COc1ccc2c(C(=O)N[C@H]3C[C@]4(C3)C[C@H](Oc3[nH]ncc3C(N)=O)C4)cnn2c1C1CC1 (stereo partly drawn) [Example 26, 5-({(aR)-6-[7-cyclopropyl-6-(2-hydroxy-2-methylpropoxy)pyrazolo [1,5-a]pyridine-3-amido]spiro[3.3]heptan-2-yl}oxy)-1H-pyrazole-4-carboxamide] | 25.4
CC(C)(O)COc1ccc2c(C(=O)N[C@H]3C[C@]4(C3)C[C@H](Oc3nn(CCCN)cc3C(N)=O)C4)cnn2c1C1CC1 (stereo partly drawn) [Example 27, 1-(3-aminopropyl)-3-({(aR)-6-[7-cyclopropyl-6-(2-hydroxy-2-methylpropoxy)pyrazolo [1,5-a]pyridine-3-amido]spiro[3.3]heptan-2-yl}oxy)-1H-pyrazole-4-carboxamide] | 13.8
CC(C)(O)COc1ccc2c(C(=O)N[C@H]3CC4(C3)C[C@H](Oc3c(C(N)=O)cnn3CCCN)C4)cnn2c1C1CC1 (stereo partly drawn) [Example 28, 1-(3-aminopropyl)-5-({(aR)-6-[7-cyclopropyl-6-(2-hydroxy-2-methylpropoxy)pyrazolo [1,5-a]pyridine-3-amido]spiro[3.3]heptan-2-yl}oxy)-1H-pyrazole-4-carboxamide] | 551
CC(C)(O)COc1ccc2c(C(=O)N[C@H]3C[C@]4(C3)C[C@H](Oc3nn(CCN)cc3C(N)=O)C4)cnn2c1C1CC1 (stereo partly drawn) [Example 29, 1-(2-aminoethyl)-3-({(aR)-6-[7-cyclopropyl-6-(2-hydroxy-2-methylpropoxy)pyrazolo [1,5-a]pyridine-3-amido]spiro[3.3]heptan-2-yl}oxy)-1H-pyrazole-4-carboxamide] | 254
CC(C)(O)COc1ccc2c(C(=O)N[C@H]3C[C@]4(C3)C[C@H](Oc3nn(C(F)F)cc3C(N)=O)C4)cnn2c1C1CC1 (stereo partly drawn) [Example 30, 3-({(aR)-6-[7-cyclopropyl-6-(2-hydroxy-2-methylpropoxy)pyrazolo [1,5-a]pyridine-3-aimdo]spiro[3.3]heptan-2-yl}oxy)-1-(difluoromethyl)-1H-pyrazole-4-carboxamide] | 7.7
CC(C)(O)COc1ccc2c(C(=O)N[C@H]3C[C@]4(C3)C[C@H](Oc3nn(-c5ccccc5C#N)cc3C(N)=O)C4)cnn2c1C1CC1 (stereo partly drawn) [Example 31, 1-(2-cyanophenyl)-3-({(aR)-6-[7-cyclopropyl-6-(2-hydroxy-2-methylpropoxy)pyrazolo [1,5-a]pyridine-3-amido]spiro[3.3]heptan-2-yl}oxy)-1H-pyrazole-4-carboxamide] | 73.3
Cn1cc(C(N)=O)c(O[C@H]2C[C@@]3(C[C@H](NC(=O)c4cnn5cc(N6CCOCC6)ccc45)C3)C2)n1 (stereo partly drawn) [Example 32, 1-methyl-3-({(aR)-6-[6-(morpholin-4-yl)pyrazolo[1,5-a]pyridine-3-amido]spiro[3.3]heptan-2-yl}oxy)-1H-pyrazole-4-carboxamide] | 29.9
Cn1cc(C(N)=O)c(O[C@H]2C[C@@]3(C[C@H](NC(=O)c4cnn5cc(N6CC7(COC7)C6)ccc45)C3)C2)n1 (stereo partly drawn) [Example 33, 1-methyl-3-{[(aR)-6-(6-{2-oxa-6-azaspiro[3.3]heptan-6-yl}pyrazolo[1,5-a]pyridine-3-amido)spiro[3.3]heptan-2-yl]oxy}-1H-pyrazole-4-carboxamide] | 347
Cc1nc(O[C@H]2C[C@@]3(C[C@H](NC(=O)c4cnn5cc(N6CC(CO)(CCl)C6)ccc45)C3)C2)c(C(N)=O)s1 (stereo partly drawn) [Example 34, 4-[((aR)-6-{6-[3-(chloromethyl)-3-(hydroxymethyl)azetidin-1-yl]pyrazolo[1,5-a]pyridine-3-amido}spiro[3.3]heptan-2-yl)oxy]-2-methyl-1,3-thiazole-5-carboxamide] | 17.2
CN1CCN(c2ccc3c(C(=O)N[C@H]4C[C@]5(C4)C[C@H](Oc4nn(C)cc4C(N)=O)C5)cnn3c2)CC1 (stereo partly drawn) [Example 35, 1-methyl-3-({(aR)-6-[6-(4-methylpiperazin-1-yl)pyrazolo[1,5-a]pyridine-3-amido]spiro[3.3]heptan-2-yl}oxy)-1H-pyrazole-4-carboxamide] | 202
Cn1cc(C(N)=O)c(O[C@H]2C[C@@]3(C[C@H](NC(=O)c4nn(C(F)F)c5cc(OCC(C)(C)O)ccc45)C3)C2)n1 (stereo partly drawn) [Example 36, N-{(aR)-6-[(4-carbamoyl-1-methyl-1H-pyrazol-3-yl)oxy]spiro[3.3]heptan-2-yl}-1-(difluoromethyl)-6-(2-hydroxy-2-methylpropoxy)-1H-indazole-3-carboxamide] | 22.4
Cc1c(C(N)=O)c(O[C@H]2C[C@@]3(C[C@H](NC(=O)c4cnn5c(C6CC6)c(OCC(C)(C)O)ccc45)C3)C2)nn1C (stereo partly drawn) [Example 37, 3-({(aR)-6-[7-cyclopropyl-6-(2-hydroxy-2-methylpropoxy)pyrazolo[1,5-a]pyridine-3-amido]spiro[3.3]heptan-2-yl}oxy)-1,5-dimethyl-1H-pyrazole-4-carboxamide] | 259
Cc1c(C(=O)N[C@H]2C[C@]3(C2)C[C@H](Oc2nn(-c4ccccc4)cc2C(N)=O)C3)cnn1-c1ccc(C#N)cc1 (stereo partly drawn) [Example 38, 3-({(aR)-6-[1-(4-cyanophenyl)-5-methyl-1H-pyrazole-4-amido]spiro[3.3]heptan-2-yl}oxy)-1-phenyl-1H-pyrazole-4-carboxamide] | 426
CC(C)(O)COc1ccc2c(C(=O)N[C@H]3C[C@]4(C3)C[C@H](Oc3c(C(N)=O)cnn3C(F)F)C4)cnn2c1C1CC1 (stereo partly drawn) [Example 39, 5-({(aR)-6-[7-cyclopropyl-6-(2-hydroxy-2-methylpropoxy)pyrazolo [1,5-a]pyridine-3-amido]spiro[3.3]heptan-2-yl}oxy)-1-(difluoromethyl)-1H-pyrazole-4-carboxamide] | 2400
NC(=O)c1cn(-c2ccccc2)nc1O[C@H]1C[C@@]2(C[C@H](NC(=O)c3cnn4cc(OCCC(F)(F)F)ccc34)C2)C1 (stereo partly drawn) [Example 40, 1-phenyl-3-{[(aR)-6-[6-(3,3,3-trifluoropropoxy)pyrazolo[1,5-a]pyridine-3-amido]spiro[3.3]heptan-2-yl]oxy}-1H-pyrazole-4-carboxamide] | 136
N#Cc1cc(C(=O)N[C@H]2C[C@]3(C2)C[C@H](Oc2nn(-c4ccccc4)cc2C(N)=O)C3)cc(-c2cnn(C(F)F)c2)c1 (stereo partly drawn) [Example 41, 1-phenyl-3-{[(aR)-6-{3-cyano-5-[1-(difluoromethyl)-1H-pyrazol-4-yl]benzamido}spiro [3.3]heptan-2-yl]oxy}-1H-pyrazole-4-carboxamide] | 55.6
CC(C)(O)COc1ccc2c(C(=O)N[C@H]3C[C@]4(C3)C[C@H](Oc3nn(-c5ccccc5)cc3C(N)=O)C4)nn(C(F)F)c2c1 (stereo partly drawn) [Example 42, 1-(difluoromethyl)-6-(2-hydroxy-2-methylpropoxy)-N-[(aR)-6-[(4-carbamoyl-1-phenyl-1H-pyrazol-3-yl)oxy]spiro[3.3]heptan-2-yl]-1H-indazole-3-carboxamide] | 13.7
Cc1nc(O[C@H]2C[C@@]3(C[C@H](NC(=O)c4cnn(-c5ccc(C#N)cc5)c4C)C3)C2)c(C(N)=O)s1 (stereo partly drawn) [Example 43, 2-methyl-4-{[(aR)-6-[1-(4-cyanophenyl)-5-methyl-1H-pyrazole-4-amido]spiro[3.3]heptan-2-yl]oxy}-1,3-thiazole-5-carboxamide] | 119
Cc1c(C(=O)N[C@H]2C[C@]3(C2)C[C@H](Oc2nc(C4CC4)sc2C(N)=O)C3)cnn1-c1ccc(C#N)cc1 (stereo partly drawn) [Example 44, 2-cyclopropyl-4-{[(aR)-6-[1-(4-cyanophenyl)-5-methyl-1H-pyrazole-4-amido]spiro[3.3]heptan-2-yl]oxy}-1,3-thiazole-5-carboxamide] | 25.2
